Measurements reported in patent US5055469A, “Quaternary pyridinium salts useful for ulcer treatment” (Hamari Chemicals, Ltd., priority 1988, dated 1991).

Columns and labels:
[1] = Acute toxicity; set-up: species or system mouse (male ddY); conditions: mouse, in vivo; mice, oral, single dose, observed for 7 days
Text: A group of five male ddY mice (4-weeks aged) was used for testing.
The compound of Example 4 was suspended in 4% gum arabic solution to prepare a test pharmaceutical, which was given orally to each test animal once.

[2] = tested on: Slc:SD rats; assay: Water-immersion stress ulceration method (antiulcer activity); format: in vivo, rat (male Slc:SD); conditions: 30 minutes before stress loading; for U.I. (ulcer index) Mean ± S.E.: non-treated control 13.4 ± 2.71
Description: After stress loading for 7 hours, the rats were killed through exsanguination, and the stomachs were removed, perfused in the inside with 10 ml of 2% formalin and then immersed in the same solution for 10 minutes for fixation. The stomachs were incised along the greater curvature, and the ulcers thus induced were measured for length under the stereoscopic microscope (magnification×10), whereby the total sum of the lengths was taken as an ulcer index (U.I., in mm). The test substance was given orally to rats in the form of a 4% gum arabic suspension 30 minutes before stress loading.

[3] = 30 mg/kg orally, test substance marked *p < 0.05

Row | Structure (SMILES) | LD50 at 168 h [1] [mg/kg] | Inhibition rate ([2]; 10 mg/kg orally) [%] | U.I. (ulcer index) Mean ± S.E. ([2]; 10 mg/kg orally) [mm] | U.I. (ulcer index) Mean ± S.E. ([2]; 30 mg/kg orally) [mm] | Inhibition rate [2, 3] [%] | Inhibition rate ([2]; 100 mg/kg orally, marked **p < 0.01) [%] | U.I. (ulcer index) Mean ± S.E. ([2]; 100 mg/kg orally) [mm]
1 | Cc1ccc(Nc2ccccc2NC(=O)C[n+]2ccccc2)cc1.[Cl-] [Example 4, 1-[2-[[2-[(4-methylphenyl)amino]phenyl]amino]-2-oxoethyl]pyridinium chloride] | ≥ 2000 | 19.0 | 10.8 ± 3.15 | 3.3 ± 1.82 | 75.1 | 90.0 | 1.3 ± 0.88
2 | CN/C(=N/CCSCc1nc[nH]c1C)NC#N [Cimetidine, reference compound] |  |  |  | 5.2 ± 3.40 | 61.4 |  | 
